How the values were obtained:
[1] = system: tumor necrosis factor (α); assay: Cytokine Induction in Human Cells: tumor necrosis factor (α) by ELISA or IGEN Assay; type: cell-based; design: key to Lowest Effective Concentration Tumor Necrosis Factor: A “*” indicates that no induction was seen at any of the tested concentrations; conditions: human PBMC, 18 to 24 hours incubation, compounds generally tested at 30-0.014 μM; for minimal effective concentration: read-out: Lowest Effective Concentration Tumor Necrosis Factor
Source text: (§1) An in vitro human blood cell system is used to assess cytokine induction. Activity is based on the measurement of interferon and tumor necrosis factor (α) (IFN and TNF, respectively) secreted into culture media as described by Testerman et. al. In “Cytokine Induction by the Immunomodulators Imiquimod and S-27609”, Journal of Leukocyte Biology, 58, 365-372 (September, 1995).
(§2) Whole blood from healthy human donors is collected by venipuncture into EDTA vacutainer tubes. Peripheral blood mononuclear cells (PBMC) are separated from whole blood by density gradient centrifugation using Histopaque®-1077. Blood is diluted 1:1 with Dulbecco's Phosphate Buffered Saline (DPBS) or Hank's Balanced Salts Solution (HBSS). The PBMC layer is collected and washed twice with DPBS or HBSS and resuspended at 4×10^6 cells/mL in RPMI complete. The PBMC suspension is added to 48 well flat bottom sterile tissue culture plates (Costar, Cambridge, Mass. or Becton Dickinson Labware, Lincoln Park, N.J.) containing an equal volume of RPMI complete media containing test compound.
(§3) The compounds are solubilized in dimethyl sulfoxide (DMSO). The DMSO concentration should not exceed a final concentration of 1% for addition to the culture wells. The compounds are generally tested at concentrations ranging from 30-0.014 μM.
(§4) The solution of test compound is added at 60 μM to the first well containing RPMI complete and serial 3 fold dilutions are made in the wells. The PBMC suspension is then added to the wells in an equal volume, bringing the test compound concentrations to the desired range (30-0.014 μM). The final concentration of PBMC suspension is 2×10^6 cells/mL. The plates are covered with sterile plastic lids, mixed gently and then incubated for 18 to 24 hours at 37° C. in a 5% carbon dioxide atmosphere.
(§5) Following incubation the plates are centrifuged for 10 minutes at 1000 rpm (˜200×g) at 4° C. The cell-free culture supernatant is removed with a sterile polypropylene pipet and transferred to sterile polypropylene tubes. Samples are maintained at −30 to −70° C. until analysis. The samples are analyzed for interferon (α) by ELISA and for tumor necrosis factor (α) by ELISA or IGEN Assay
Tumor necrosis factor (α) (TNF) concentration is determined using ELISA kits available from Biosource International, Camarillo, Calif. Alternately, the TNF concentration can be determined by Origen® M-Series Immunoassay and read on an IGEN M-8 analyzer from IGEN International, Gaithersburg, Md. The immunoassay uses a human TNF capture and detection antibody pair from Biosource International, Camarillo, Calif. Results are expressed in pg/mL.
(§6) The table below lists the lowest concentration found to induce interferon and the lowest concentration found to induce tumor necrosis factor for each compound.

interferon (α) = assay: Cytokine Induction in Human Cells: interferon (α) by ELISA; type: cell-based; design: key to Lowest Effective Concentration Interferon: A “*” indicates that no induction was seen at any of the tested concentrations; conditions: human PBMC, 18 to 24 hours incubation, compounds generally tested at 30-0.014 μM; for minimal effective concentration: read-out: Lowest Effective Concentration Interferon
Source text: as §1, §2, §3, §4, §5
Interferon (α) concentration is determined by ELISA using a Human Multi-Species kit from PBL Biomedical Laboratories, New Brunswick, N.J. Results are expressed in pg/mL.
as §6

| SMILES | Lowest Effective Concentration Tumor Necrosis Factor [1] | Lowest Effective Concentration Interferon (interferon (α)) | minimal effective concentration [1] [µM] | minimal effective concentration (interferon (α)) [µM] |
| --- | --- | --- | --- | --- |
| CCOCc1nc2c(N)nc(C)cc2n1CCCCNC(=O)NS(=O)(=O)c1ccccc1 [Example 47] | * | * | – | – |
| CCOCc1nc2c(N)nc(C)c(C)c2n1CCC1CCN(C(=O)Nc2ccc(N(C)C)cc2)CC1 [Example 63] | – | – | 1.11 | 0.014 |
| Cc1nc(N)c2ncn(CCCCNC(=O)Nc3cccc(C#N)c3)c2c1C [Example 21] | * | * | – | – |
| CCOCc1nc2c(N)nc(C)c(C)c2n1CCC1CCN(C(=O)NC2CCCCC2)CC1 [Example 58] | – | – | 3.33 | 0.37 |
| CCOCc1nc2c(N)nc(C)c(C)c2n1CCC1CCN(C(=O)N[C@@H]2C[C@H]2c2ccccc2)CC1 (relative stereo) [Example 67, 4-{2-[4-amino-2-(ethoxymethyl)-6,7-dimethyl-1H-imidazo[4,5-c]pyridin-1-yl]ethyl}-N-[(1R*,2S*)-2-phenylcyclopropyl]piperidine-1-carboxamide] | – | – | 3.33 | 1.11 |
| CCOCc1nc2c(N)nc(C)cc2n1CCCCNC(=S)Nc1ccc(OC)cc1 [Example 52] | – | – | 3.33 | 0.37 |
| Cc1nc(N)c2ncn(CCCCNC(=S)NCCc3ccccc3)c2c1C [Example 34] | * | * | – | – |
| CCCCNC(=O)N1CCC(CCn2c(COCC)nc3c(N)nc(C)c(C)c32)CC1 [Example 56] | – | – | 3.33 | 1.11 |
| CCOCc1nc2c(N)nc(C)c(C)c2n1CCC1CCN(C(=O)Nc2cccc(SC)c2)CC1 [Example 64] | – | – | 1.11 | 0.37 |
| CCOCc1nc2c(N)nc(C)c(C)c2n1CCC1CCN(C(=S)Nc2ccc(OC)cc2)CC1 [Example 73] | – | – | 1.11 | 0.12 |
| COc1cccc(NC(=O)NCCCCn2cnc3c(N)nc(C)c(C)c32)c1 [Example 22] | * | * | – | – |
| CCOCc1nc2c(N)nc(C)c(C)c2n1CCC1CCN(C(=S)NC(=O)c2ccco2)CC1 [Example 74, N-[(4-{2-[4-amino-2-(ethoxymethyl)-6,7-dimethyl-1H-imidazo[4,5-c]pyridin-1-yl]ethyl}piperidin-1-yl)carbonothioyl]-2-furamide] | – | – | 1.11 | 0.37 |
| CCOCc1nc2c(N)nc(C)c(C)c2n1CCC1CCN(C(=O)N(C)c2ccccc2)CC1 [Example 68, 4-{2-[4-amino-2-(ethoxymethyl)-6,7-dimethyl-1H-imidazo[4,5-c]pyridin-1-yl]ethyl}-N-methyl-N-phenylpiperidine-1-carboxamide] | – | – | 1.11 | 0.37 |
| CCOCc1nc2c(N)nc(C)cc2n1CCCCNC(=O)NCC(=O)OCC [Example 40] | * | – | – | 3.33 |
| CCOCc1nc2c(N)nc(C)cc2n1CCCCNC(=O)N[C@@H]1C[C@H]1c1ccccc1 (relative stereo) [Example 46, N-{4-[4-amino-2-(ethoxymethyl)-6-methyl-1H-imidazo[4,5-c]pyridin-1-yl]butyl}-N′-[(1R*,2S*)-2-phenylcyclopropyl]urea] | – | – | 10 | 3.33 |
| CNC(=S)NCCCCn1cnc2c(N)nc(C)c(C)c21 [Example 32] | * | * | – | – |
| Cc1nc(N)c2ncn(CCCCNC(=O)NS(=O)(=O)c3ccc(Cl)cc3)c2c1C [Example 31] | * | * | – | – |
| CCOCc1nc2c(N)nc(C)c(C)c2n1CCC1CCN(C(=O)NCC(=O)OCC)CC1 [Example 59] | – | – | 10 | 1.11 |
| CCOCc1nc2c(N)nc(C)c(C)c2n1CCC1CCN(C(=S)NCCc2ccccc2)CC1 [Example 72] | – | – | 1.11 | 0.37 |

| SMILES | Lowest Effective Concentration Tumor Necrosis Factor [1] | Lowest Effective Concentration Interferon (interferon (α)) | minimal effective concentration [1] [µM] | minimal effective concentration (interferon (α)) [µM] |
| --- | --- | --- | --- | --- |
| CCOCc1nc2c(N)nc(C)c(C)c2n1CCC1CCN(C(=S)Nc2ccccc2)CC1 [Example 71] | – | – | 3.33 | 0.37 |
| CCOCc1nc2c(N)nc(C)cc2n1CCCCNC(=O)NC(C)C [Example 36] | – | – | 30 | 1.11 |
| CCOCc1nc2c(N)nc(C)cc2n1CCCCNC(=O)Nc1ccc(OC)cc1OC [Example 45] | – | – | 10 | 3.33 |
| CCOCc1nc2c(N)nc(C)cc2n1CCCCNC(=S)Nc1ccccc1 [Example 50] | – | – | 3.33 | 0.37 |
| CCOCc1nc2c(N)nc(C)c(C)c2n1CCC1CCN(C(=O)NS(=O)(=O)c2ccc(Cl)cc2)CC1 [Example 70] | * | – | – | 10 |
| CCCCc1nc2c(N)nc(C)c(C)c2n1CCCCNC(=O)c1ccccc1 [Example 1, N-[4-(4-Amino-2-butyl-6,7-dimethyl-1H-imidazo[4,5-c]pyridin-1-yl)butyl]benzamide] | – | – | 1.11 | 0.12 |
| CCOCc1nc2c(N)nc(C)c(C)c2n1CCC1CCN(C(=O)Nc2ccccc2)CC1 [Example 57] | – | – | 1.11 | 0.37 |
| CCOCc1nc2c(N)nc(C)cc2n1CCCCNC(=O)Nc1cccc(SC)c1 [Example 44] | – | – | 10 | 3.33 |
| CCOCc1nc2c(N)nc(C)c(C)c2n1CCC1CCN(C(=O)NS(=O)(=O)c2ccccc2)CC1 [Example 69] | * | – | – | 3.33 |
| COc1ccc(NC(=S)NCCCCn2cnc3c(N)nc(C)c(C)c32)cc1 [Example 35] | – | – | 30 | 3.33 |
| CCOCc1nc2c(N)nc(C)cc2n1CCCCNC(=O)Nc1cccc(C#N)c1 [Example 41] | – | – | 30 | 10 |
| Cc1nc(N)c2ncn(CCCCNC(=O)NS(=O)(=O)c3ccccc3)c2c1C [Example 29] | * | * | – | – |
| CCOCc1nc2c(N)nc(C)c(C)c2n1CCC1CCN(C(=O)NC(C)(C)C)CC1 [Example 55] | – | – | 10 | 3.33 |
| CCCCc1nc2c(N)nc(C)c(C)c2n1CCCCNS(=O)(=O)c1ccc(F)cc1 [Example 3, N-[4-(4-Amino-2-butyl-6,7-dimethyl-1H-imidazo[4,5-c]pyridin-1-yl)butyl]-4-fluorobenzenesulfonamide Hydrate] | – | – | 0.37 | 0.01 |
| CCOCc1nc2c(N)nc(C)c(C)c2n1CCC1CCN(C(=O)Nc2cccc(C(C)=O)c2)CC1 [Example 62] | – | – | 1.11 | 0.37 |
| CCOCc1nc2c(N)nc(C)cc2n1CCCCNC(=O)Nc1cccc(C(C)=O)c1 [Example 42] | – | – | 10 | 10 |
| CCOCc1nc2c(N)nc(C)cc2n1CCCCNC(=O)NS(=O)(=O)c1ccc(C)cc1 [Example 48] | * | * | – | – |
| CCCCNC(=O)NCCCCn1cnc2c(N)nc(C)c(C)c21 [Example 18] | * | * | – | – |
| CCOCc1nc2c(N)nc(C)c(C)c2n1CCC1CCN(C(=O)Nc2cccc(OC)c2)CC1 [Example 61] | – | – | 1.11 | 0.37 |
